Assay results taken from ChEMBL document CHEMBL4004877, “Synthesis and biological evaluation of chalcone, dihydrochalcone, and 1,3-diarylpropane analogs as anti-inflammatory agents” (Bioorg Med Chem Lett, 2017).
≈ marks a conversion by molar mass, not a printed value.

test system: RAW264.7; experiment: Antiinflammatory activity in mouse RAW264.7 cells assessed as inhibition of LPS induced iNOS-dependent nitric oxide production at 2.5 ug/ml after 24 hrs by Griess assay relative to control; type: functional; settings: RAW264.7, 24 h

Row | SMILES | inhibition at 2.5 µg/mL [%]
1 | COc1cc(C(=O)/C=C/c2cccc(OC)c2OC)ccc1O | 3.1
2 | COc1ccc(OC)c(CCC(=O)c2cccc(O)c2)c1 | 18.4
3 | COc1ccc(CCCc2cccc(O)c2)c(OC)c1 | 18
4 | COc1ccc(C(=O)/C=C/c2ccc3c(c2)OCO3)c(OC)c1 | 51.9
5 | COc1cc(C(=O)CCc2ccc3c(c2)OCO3)ccc1O | 5.5
6 | COc1ccc(/C=C/C(=O)c2ccc(O)c(OC)c2)cc1 | 3.1
7 | COc1ccc(/C=C/C(=O)c2ccc(OC)cc2O)cc1 | 3.5
8 | COc1cc(C(=O)CCc2cccc(OC)c2OC)ccc1O | 4.4
9 | COc1cc(C(=O)/C=C/c2ccc3c(c2)OCO3)ccc1O | 0.6
10 | COc1cc(CCCc2cccc(OC)c2OC)ccc1O | 49.5
11 | COc1cccc(CCCc2cccc(O)c2)c1OC | 18.4
12 | COc1cc(/C=C/C(=O)c2cccc(O)c2)ccc1O | 3.2
13 | COc1ccc(C(=O)CCc2cc(OC)ccc2OC)c(O)c1 | 8.2
14 | COc1ccc(/C=C/C(=O)c2cccc(O)c2)cc1 | 2.1

test system: RAW264.7; experiment: Antiinflammatory activity in mouse RAW264.7 cells assessed as inhibition of LPS induced iNOS-dependent nitric oxide production after 24 hrs by Griess assay; type: functional, cell-based; settings: RAW264.7, 24 h

Row | SMILES | IC50 [µg/mL]
15 | COc1cc(C(=O)/C=C/c2cccc(OC)c2OC)ccc1O | > 10
16 | COc1ccc(OC)c(CCC(=O)c2cccc(O)c2)c1 | > 10
17 | COc1ccc(CCCc2cccc(O)c2)c(OC)c1 | 6.92 (≈ 25.4 µM)
18 | COc1ccc(C(=O)/C=C/c2ccc3c(c2)OCO3)c(OC)c1 | 2.43 (≈ 7.78 µM)
19 | COc1cc(C(=O)CCc2ccc3c(c2)OCO3)ccc1O | 9.44 (≈ 31.4 µM)
20 | COc1ccc(/C=C/C(=O)c2ccc(O)c(OC)c2)cc1 | 4.88 (≈ 17.2 µM)
21 | COc1ccc(/C=C/C(=O)c2ccc(OC)cc2O)cc1 | 4.73 (≈ 16.6 µM)
22 | COc1cc(C(=O)CCc2cccc(OC)c2OC)ccc1O | > 10
23 | COc1cc(C(=O)/C=C/c2ccc3c(c2)OCO3)ccc1O | 6.3 (≈ 21.1 µM)
24 | COc1cc(CCCc2cccc(OC)c2OC)ccc1O | 2.57 (≈ 8.5 µM)
25 | COc1cccc(CCCc2cccc(O)c2)c1OC | 8.09 (≈ 29.7 µM)
26 | COc1cc(/C=C/C(=O)c2cccc(O)c2)ccc1O | > 10
27 | COc1ccc(C(=O)CCc2cc(OC)ccc2OC)c(O)c1 | > 10

test system: not listed separately; experiment: Cytotoxicity against LPS-stimulated mouse RAW264.7 cells assessed as cell viability at 1.25 ug/ml after 24 hrs by MTT assay relative to control; type: cell-based; settings: LPS-stimulated RAW264.7 cells, read-out: Activity

Row | SMILES | viability at 24 h, 1.25 ug/ml [%]
28 | COc1cc(C(=O)/C=C/c2cccc(OC)c2OC)ccc1O | 97.5
29 | COc1ccc(OC)c(CCC(=O)c2cccc(O)c2)c1 | 98.6
30 | COc1ccc(CCCc2cccc(O)c2)c(OC)c1 | 98.5
31 | COc1ccc(C(=O)/C=C/c2ccc3c(c2)OCO3)c(OC)c1 | 92.7
32 | COc1cc(C(=O)CCc2ccc3c(c2)OCO3)ccc1O | 95.3
33 | COc1ccc(/C=C/C(=O)c2ccc(O)c(OC)c2)cc1 | 96.2
34 | COc1ccc(/C=C/C(=O)c2ccc(OC)cc2O)cc1 | 93.3
35 | COc1cc(C(=O)CCc2cccc(OC)c2OC)ccc1O | 94.1
36 | COc1cc(C(=O)/C=C/c2ccc3c(c2)OCO3)ccc1O | 100
37 | COc1cc(CCCc2cccc(OC)c2OC)ccc1O | 99.6
38 | COc1cccc(CCCc2cccc(O)c2)c1OC | 97.1
39 | COc1cc(/C=C/C(=O)c2cccc(O)c2)ccc1O | 96.9
40 | COc1ccc(C(=O)CCc2cc(OC)ccc2OC)c(O)c1 | 96.4
41 | COc1ccc(/C=C/C(=O)c2cccc(O)c2)cc1 | 99

test system: RAW264.7; experiment: Antiinflammatory activity in mouse RAW264.7 cells assessed as inhibition of LPS induced iNOS-dependent nitric oxide production at 10 ug/ml after 24 hrs by Griess assay relative to control; type: functional; settings: RAW264.7, 24 h

Row | SMILES | inhibition at 10 µg/mL [%]
42 | COc1cc(C(=O)/C=C/c2cccc(OC)c2OC)ccc1O | 46.2
43 | COc1ccc(OC)c(CCC(=O)c2cccc(O)c2)c1 | 38.5
44 | COc1ccc(CCCc2cccc(O)c2)c(OC)c1 | 78.8
45 | COc1ccc(C(=O)/C=C/c2ccc3c(c2)OCO3)c(OC)c1 | 62.4
46 | COc1cc(C(=O)CCc2ccc3c(c2)OCO3)ccc1O | 51.6
47 | COc1ccc(/C=C/C(=O)c2ccc(O)c(OC)c2)cc1 | 53.9
48 | COc1ccc(/C=C/C(=O)c2ccc(OC)cc2O)cc1 | 78.2
49 | COc1cc(C(=O)CCc2cccc(OC)c2OC)ccc1O | 33.3
50 | COc1cc(C(=O)/C=C/c2ccc3c(c2)OCO3)ccc1O | 51.8
51 | COc1cc(CCCc2cccc(OC)c2OC)ccc1O | 89.4
52 | COc1cccc(CCCc2cccc(O)c2)c1OC | 63.9
53 | COc1cc(/C=C/C(=O)c2cccc(O)c2)ccc1O | 12.2
54 | COc1ccc(C(=O)CCc2cc(OC)ccc2OC)c(O)c1 | 14

test system: RAW264.7; experiment: Antiinflammatory activity in mouse RAW264.7 cells assessed as inhibition of LPS induced iNOS-dependent nitric oxide production at 1.25 ug/ml after 24 hrs by Griess assay relative to control; type: functional; settings: RAW264.7, 24 h

Row | SMILES | inhibition at 1.25 µg/mL [%]
55 | COc1cc(C(=O)/C=C/c2cccc(OC)c2OC)ccc1O | 3.9
56 | COc1ccc(OC)c(CCC(=O)c2cccc(O)c2)c1 | 15.7
57 | COc1ccc(CCCc2cccc(O)c2)c(OC)c1 | 16.2
58 | COc1ccc(C(=O)/C=C/c2ccc3c(c2)OCO3)c(OC)c1 | 2.4
59 | COc1cc(C(=O)CCc2ccc3c(c2)OCO3)ccc1O | 4.2
60 | COc1ccc(/C=C/C(=O)c2ccc(O)c(OC)c2)cc1 | 7.7
61 | COc1ccc(/C=C/C(=O)c2ccc(OC)cc2O)cc1 | 9.4
62 | COc1cc(C(=O)CCc2cccc(OC)c2OC)ccc1O | 0.1
63 | COc1cc(C(=O)/C=C/c2ccc3c(c2)OCO3)ccc1O | 5.3
64 | COc1cc(CCCc2cccc(OC)c2OC)ccc1O | 43.3
65 | COc1cccc(CCCc2cccc(O)c2)c1OC | 16.3
66 | COc1cc(/C=C/C(=O)c2cccc(O)c2)ccc1O | 3
67 | COc1ccc(C(=O)CCc2cc(OC)ccc2OC)c(O)c1 | 6.6
68 | COc1ccc(/C=C/C(=O)c2cccc(O)c2)cc1 | 9.4

test system: not listed separately; experiment: Cytotoxicity against LPS-stimulated mouse RAW264.7 cells assessed as cell viability at 2.5 ug/ml after 24 hrs by MTT assay relative to control; type: cell-based; settings: LPS-stimulated RAW264.7 cells, read-out: Activity

Row | SMILES | viability at 24 h, 2.5 ug/ml [%]
69 | COc1cc(C(=O)/C=C/c2cccc(OC)c2OC)ccc1O | 94
70 | COc1ccc(OC)c(CCC(=O)c2cccc(O)c2)c1 | 96.8
71 | COc1ccc(CCCc2cccc(O)c2)c(OC)c1 | 97
72 | COc1ccc(C(=O)/C=C/c2ccc3c(c2)OCO3)c(OC)c1 | 70.4
73 | COc1cc(C(=O)CCc2ccc3c(c2)OCO3)ccc1O | 94.5
74 | COc1ccc(/C=C/C(=O)c2ccc(O)c(OC)c2)cc1 | 96
75 | COc1ccc(/C=C/C(=O)c2ccc(OC)cc2O)cc1 | 72.3
76 | COc1cc(C(=O)CCc2cccc(OC)c2OC)ccc1O | 94.5
77 | COc1cc(C(=O)/C=C/c2ccc3c(c2)OCO3)ccc1O | 85.3
78 | COc1cc(CCCc2cccc(OC)c2OC)ccc1O | 97.8
79 | COc1cccc(CCCc2cccc(O)c2)c1OC | 97.4
80 | COc1cc(/C=C/C(=O)c2cccc(O)c2)ccc1O | 94
81 | COc1ccc(C(=O)CCc2cc(OC)ccc2OC)c(O)c1 | 96.2
82 | COc1ccc(/C=C/C(=O)c2cccc(O)c2)cc1 | 99.1

test system: not listed separately; experiment: Cytotoxicity against LPS-stimulated mouse RAW264.7 cells assessed as cell viability at 10 ug/ml after 24 hrs by MTT assay relative to control; type: cell-based; settings: LPS-stimulated RAW264.7 cells, read-out: Activity

Row | SMILES | viability at 24 h, 10 ug/ml [%]
83 | COc1cc(C(=O)/C=C/c2cccc(OC)c2OC)ccc1O | 63.7
84 | COc1ccc(OC)c(CCC(=O)c2cccc(O)c2)c1 | 93.6
85 | COc1ccc(CCCc2cccc(O)c2)c(OC)c1 | 67.9
86 | COc1ccc(C(=O)/C=C/c2ccc3c(c2)OCO3)c(OC)c1 | 66.2
87 | COc1cc(C(=O)CCc2ccc3c(c2)OCO3)ccc1O | 89
88 | COc1ccc(/C=C/C(=O)c2ccc(O)c(OC)c2)cc1 | 62.3
89 | COc1ccc(/C=C/C(=O)c2ccc(OC)cc2O)cc1 | 72.6
90 | COc1cc(C(=O)CCc2cccc(OC)c2OC)ccc1O | 90.5
91 | COc1cc(C(=O)/C=C/c2ccc3c(c2)OCO3)ccc1O | 72.7
92 | COc1cc(CCCc2cccc(OC)c2OC)ccc1O | 68.9
93 | COc1cccc(CCCc2cccc(O)c2)c1OC | 69.6
94 | COc1cc(/C=C/C(=O)c2cccc(O)c2)ccc1O | 62.6
95 | COc1ccc(C(=O)CCc2cc(OC)ccc2OC)c(O)c1 | 92.4
96 | COc1ccc(/C=C/C(=O)c2cccc(O)c2)cc1 | 41.2

test system: RAW264.7; experiment: Antiinflammatory activity in mouse RAW264.7 cells assessed as inhibition of LPS induced iNOS-dependent nitric oxide production at 5 ug/ml after 24 hrs by Griess assay relative to control; type: functional; settings: RAW264.7, 24 h

Row | SMILES | inhibition at 5 µg/mL [%]
97 | COc1cc(C(=O)/C=C/c2cccc(OC)c2OC)ccc1O | 3.2
98 | COc1ccc(OC)c(CCC(=O)c2cccc(O)c2)c1 | 22.3
99 | COc1ccc(CCCc2cccc(O)c2)c(OC)c1 | 24.6
100 | COc1ccc(C(=O)/C=C/c2ccc3c(c2)OCO3)c(OC)c1 | 52
101 | COc1cc(C(=O)CCc2ccc3c(c2)OCO3)ccc1O | 32.2
102 | COc1ccc(/C=C/C(=O)c2ccc(O)c(OC)c2)cc1 | 51.7
103 | COc1ccc(/C=C/C(=O)c2ccc(OC)cc2O)cc1 | 54
104 | COc1cc(C(=O)CCc2cccc(OC)c2OC)ccc1O | 15.9
105 | COc1cc(C(=O)/C=C/c2ccc3c(c2)OCO3)ccc1O | 49.1
106 | COc1cc(CCCc2cccc(OC)c2OC)ccc1O | 60.7
107 | COc1cccc(CCCc2cccc(O)c2)c1OC | 18.3
108 | COc1cc(/C=C/C(=O)c2cccc(O)c2)ccc1O | 3.2
109 | COc1ccc(C(=O)CCc2cc(OC)ccc2OC)c(O)c1 | 11.9

test system: not listed separately; experiment: Cytotoxicity against LPS-stimulated mouse RAW264.7 cells assessed as cell viability at 5 ug/ml after 24 hrs by MTT assay relative to control; type: cell-based; settings: LPS-stimulated RAW264.7 cells, read-out: Activity

Row | SMILES | viability at 24 h, 5 ug/ml [%]
110 | COc1cc(C(=O)/C=C/c2cccc(OC)c2OC)ccc1O | 67.8
111 | COc1ccc(OC)c(CCC(=O)c2cccc(O)c2)c1 | 97.5
112 | COc1ccc(CCCc2cccc(O)c2)c(OC)c1 | 95.9
113 | COc1ccc(C(=O)/C=C/c2ccc3c(c2)OCO3)c(OC)c1 | 69.2
114 | COc1cc(C(=O)CCc2ccc3c(c2)OCO3)ccc1O | 92
115 | COc1ccc(/C=C/C(=O)c2ccc(O)c(OC)c2)cc1 | 82.9
116 | COc1ccc(/C=C/C(=O)c2ccc(OC)cc2O)cc1 | 75.2
117 | COc1cc(C(=O)CCc2cccc(OC)c2OC)ccc1O | 91.1
118 | COc1cc(C(=O)/C=C/c2ccc3c(c2)OCO3)ccc1O | 81.1
119 | COc1cc(CCCc2cccc(OC)c2OC)ccc1O | 97
120 | COc1cccc(CCCc2cccc(O)c2)c1OC | 96.1
121 | COc1cc(/C=C/C(=O)c2cccc(O)c2)ccc1O | 63.8
122 | COc1ccc(C(=O)CCc2cc(OC)ccc2OC)c(O)c1 | 91.1
123 | COc1ccc(/C=C/C(=O)c2cccc(O)c2)cc1 | 63.3
